Source: US6737383B1, “Herbicidal oxadiazolidines” (priority 1999, dated 2004)

Columns and labels:
bedstraw = assay: Test B pre/postemergence bedstraw; format: in vivo, Galium aparine; conditions: Preemergence
Outline: (§1)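 Herbicidal effect was estimated by eye on a ten-point control scale after plants spent twelve to sixteen days in a greenhouse following soil or foliar treatment. Foliar sprays targeted plants at one to four leaves; all doses were formulated in a non-phytotoxic solvent with surfactant.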

blackgrass = assay: Test B pre/postemergence blackgrass; format: in vivo, Alopecurus myosuroides
Outline: as §1

surinam grass = assay: Test B pre/postemergence surinam grass; format: in vivo, Brachiaria decumbens; conditions: for Plant response rating, B. signalgrass: scale of 0 to 10 where 0 is no effect and 10 is complete control
Outline: as §1

cocklebur = assay: Test B pre/postemergence cocklebur; format: in vivo, Xanthium strumarium
Outline: as §1

corn = assay: Test B pre/postemergence corn; format: in vivo, Zea mays
Outline: as §1

crabgrass = assay: Test B pre/postemergence crabgrass; format: in vivo, Digitaria sanguinalis
Outline: as §1

giant foxtail = assay: Test B pre/postemergence giant foxtail; format: in vivo, Setaria faberii
Outline: as §1

morningglory = assay: Test B pre/postemergence morningglory; format: in vivo, Ipomoea hederacea
Outline: as §1

pigweed = assay: Test B pre/postemergence pigweed; format: in vivo, Amaranthus retroflexus; conditions: for Plant response rating, Redroot pigweed: Postemergence
Outline: as §1

rape = assay: Test B pre/postemergence rape; format: in vivo, Brassica napus
Outline: as §1

soybean = assay: Test B pre/postemergence soybean; format: in vivo, Glycine max; conditions: for Plant response rating, Soybean: Postemergence
Outline: as §1

sugar beet = assay: Test B pre/postemergence sugar beet; format: in vivo, Beta vulgaris
Outline: as §1

velvetleaf = assay: Test B pre/postemergence velvetleaf; format: in vivo, Abutilon theophrasti; conditions: for Plant response rating, Velvetleaf: Postemergence
Outline: as §1

wheat = assay: Test B pre/postemergence wheat; format: in vivo, Triticum aestivum; conditions: for Plant response rating, Wheat: Postemergence
Outline: as §1

wild oat = assay: Test B pre/postemergence wild oat; format: in vivo, Avena fatua; conditions: for Plant response rating, Wild oats: Postemergence
Outline: as §1

purple nutsedge = assay: Test B pre/postemergence purple nutsedge; format: in vivo, Cyperus rotundus; conditions: for Nutsedge plant response rating: Rate 125 g/ha, scale 0 to 10, 0 is no effect, 10 is complete control
Outline: as §1

[1] = Rate 500 g/ha, scale of 0 to 10 where 0 is no effect and 10 is complete control
[2] = Postemergence, Rate 62 g/ha, scale of 0 to 10, 0 is no effect, 10 is complete control
[3] = Postemergence, Rate 125 g/ha, scale 0 to 10, 0 is no effect, 10 is complete control
[4] = Postemergence, Rate 500 g/ha, scale of 0 to 10 where 0 is no effect and 10 is complete control
[5] = Preemergence, Rate 62 g/ha, scale 0 to 10 (0 no effect, 10 complete control)
[6] = Preemergence, Rate 125 g/ha, scale 0 to 10, 0 is no effect, 10 is complete control
[7] = Preemergence, Rate 500 g/ha, scale of 0 to 10 where 0 is no effect and 10 is complete control
[8] = Rate 250 g/ha, Postemergence, scale of 0 to 10 where 0 is no effect and 10 is complete control
[9] = Rate 250 g/ha, scale of 0 to 10 where 0 is no effect and 10 is complete control

## C=CCCCn1c(=O)on(C(=O)N(c2ccccc2)C(C)C)c1=O [Compound 575]
bedstraw; Rate 62 g/ha, scale 0 to 10 (0 no effect, 10 complete control)
  Bedstraw plant response rating: 0
bedstraw; Rate 125 g/ha, scale 0 to 10, 0 is no effect, 10 is complete control
  Bedstraw plant response rating: 0
bedstraw; Rate 250 g/ha
  Bedstraw plant response rating (0 to 10 scale): 0
bedstraw; [1]
  Bedstraw plant response rating: 0
blackgrass; [2]
  Blackgrass plant response rating: 0
blackgrass; [3]
  Blackgrass plant response rating: 0
blackgrass; [4]
  Plant response rating, Blackgrass: 3
blackgrass; [5]
  Blackgrass plant response rating: 2
blackgrass; [6]
  Blackgrass plant response rating: 6
blackgrass; Preemergence, Rate 250 g/ha
  Blackgrass plant response rating (0 to 10 scale): 7
blackgrass; [7]
  Blackgrass plant response rating: 2
blackgrass; [8]
  Plant response rating, Blackgrass: 0
Surinam grass; [2]
  B. signalgrass plant response rating: 0
Surinam grass; [3]
  B. signalgrass plant response rating: 0
Surinam grass; Postemergence, Rate 500 g/ha
  Plant response rating, B. signalgrass: 3
Surinam grass; [5]
  B. signalgrass plant response rating: 6
Surinam grass; [6]
  B. signalgrass plant response rating: 9
Surinam grass; Preemergence, Rate 250 g/ha
  B. signalgrass plant response rating (0 to 10 scale, 0 is no effect, 10 is complete control): 10
Surinam grass; Rate 250 g/ha, Postemergence
  Plant response rating, B. signalgrass: 0
cocklebur; [2]
  Cocklebur plant response rating: 0
cocklebur; [3]
  Cocklebur plant response rating: 0
cocklebur; [4]
  Plant response rating, Cocklebur: 2
cocklebur; [5]
  Cocklebur plant response rating: 0
cocklebur; [6]
  Cocklebur plant response rating: 0
cocklebur; Preemergence, Rate 250 g/ha
  Cocklebur plant response rating (0 to 10 scale): 0
cocklebur; [7]
  Cocklebur plant response rating: 0
cocklebur; [8]
  Plant response rating, Cocklebur: 0
corn; [2]
  Corn plant response rating: 0
corn; [3]
  Corn plant response rating: 0
corn; [4]
  Plant response rating, Corn: 0
corn; [5]
  Corn plant response rating: 0
corn; [6]
  Corn plant response rating: 0
corn; Preemergence, Rate 250 g/ha
  Corn plant response rating (0 to 10 scale): 0
corn; [7]
  Corn plant response rating: 3
corn; [8]
  Plant response rating, Corn: 0
crabgrass; [2]
  Crabgrass plant response rating: 0
crabgrass; [3]
  Crabgrass plant response rating: 2
crabgrass; [4]
  Plant response rating, Crabgrass: 9
crabgrass; [5]
  Crabgrass plant response rating: 8
crabgrass; [6]
  Crabgrass plant response rating: 9
crabgrass; Preemergence, Rate 250 g/ha
  Crabgrass plant response rating (0 to 10 scale): 9
crabgrass; [7]
  Crabgrass plant response rating: 9
crabgrass; [8]
  Plant response rating, Crabgrass: 9
Giant foxtail; [3]
  Giant foxtail plant response rating: 2
Giant foxtail; [5]
  Giant foxtail plant response rating: 8
Giant foxtail; [6]
  Giant foxtail plant response rating: 10
Giant foxtail; Preemergence, Rate 250 g/ha
  Giant foxtail plant response rating (0 to 10 scale): 10
Giant foxtail; [7]
  Giant foxtail plant response rating: 10
Giant foxtail; [8]
  Plant response rating, Giant foxtail: 8
morningglory; [2]
  Morningglory plant response rating: 4
morningglory; [3]
  Morningglory plant response rating: 6
morningglory; [4]
  Plant response rating, Morningglory: 10
morningglory; [5]
  Morningglory plant response rating: 0
morningglory; [6]
  Morningglory plant response rating: 0
morningglory; Preemergence, Rate 250 g/ha
  Morningglory plant response rating (0 to 10 scale): 0
morningglory; [7]
  Morningglory plant response rating: 2
morningglory; [8]
  Plant response rating, Morningglory: 9
pigweed; [1]
  Plant response rating, Redroot pigweed: 7
pigweed; [5]
  Redroot pigweed plant response rating: 9
pigweed; [6]
  Redroot pigweed plant response rating: 9
pigweed; Preemergence, Rate 250 g/ha
  Redroot pigweed plant response rating (0 to 10 scale): 10
pigweed; [7]
  Redroot pigweed plant response rating: 10
pigweed; [9]
  Plant response rating, Redroot pigweed: 4
rape; [2]
  Rape plant response rating: 0
rape; [3]
  Rape plant response rating: 0
rape; [4]
  Plant response rating, Rape: 3
rape; [5]
  Rape plant response rating: 0
rape; [6]
  Rape plant response rating: 2
rape; Preemergence, Rate 250 g/ha
  Rape plant response rating (0 to 10 scale): 2
rape; [7]
  Rape plant response rating: 2
rape; [8]
  Plant response rating, Rape: 3
soybean; [1]
  Plant response rating, Soybean: 6
soybean; [5]
  Soybean plant response rating: 0
soybean; [6]
  Soybean plant response rating: 0
soybean; Preemergence, Rate 250 g/ha
  Soybean plant response rating (0 to 10 scale): 0
soybean; [7]
  Soybean plant response rating: 0
soybean; [9]
  Plant response rating, Soybean: 5
Sugar beet; [4]
  Plant response rating, Sugarbeets: 2
Sugar beet; [5]
  Sugarbeets plant response rating: 0
Sugar beet; [6]
  Sugarbeets plant response rating: 0
Sugar beet; Preemergence, Rate 250 g/ha
  Sugarbeets plant response rating (0 to 10 scale): 0
Sugar beet; [7]
  Sugarbeets plant response rating: 2
velvetleaf; [1]
  Plant response rating, Velvetleaf: 3
velvetleaf; [5]
  Velvetleaf plant response rating: 0
velvetleaf; [6]
  Velvetleaf plant response rating: 0
velvetleaf; Preemergence, Rate 250 g/ha
  Velvetleaf plant response rating (0 to 10 scale): 0
velvetleaf; [7]
  Velvetleaf plant response rating: 2
velvetleaf; [9]
  Plant response rating, Velvetleaf: 2
wheat; [1]
  Plant response rating, Wheat: 2
wheat; [5]
  Wheat plant response rating: 0
wheat; [6]
  Wheat plant response rating: 0
wheat; Preemergence, Rate 250 g/ha
  Wheat plant response rating (0 to 10 scale): 0
wheat; [7]
  Wheat plant response rating: 0
wheat; [9]
  Plant response rating, Wheat: 0
Wild oat; [1]
  Plant response rating, Wild oats: 0
Wild oat; [5]
  Wild oats plant response rating: 0
Wild oat; [6]
  Wild oats plant response rating: 0
Wild oat; Preemergence, Rate 250 g/ha
  Wild oats plant response rating (0 to 10 scale): 2
Wild oat; [7]
  Wild oats plant response rating: 2
Wild oat; [9]
  Plant response rating, Wild oats: 0
Purple nutsedge; Postemergence
  Nutsedge plant response rating: 0
Purple nutsedge; Preemergence
  Nutsedge plant response rating: 0
Purple nutsedge; Preemergence, Rate 250 g/ha
  Nutsedge plant response rating (0 to 10 scale): 0
Purple nutsedge; [8]
  Plant response rating, Nutsedge: 0
